# Columns and labels:
# A3AR = target: T1, A3AR (Mus musculus, UniProt Q61618); assay: Immunostaining and confocal microscopy of A3AR localization in B16-F10 melanoma cells; assay type: cell-based
# T1 construct: endogenous in cells; host or cells: B16-F10 melanoma cells
# T1 sequence (Q61618 1-319): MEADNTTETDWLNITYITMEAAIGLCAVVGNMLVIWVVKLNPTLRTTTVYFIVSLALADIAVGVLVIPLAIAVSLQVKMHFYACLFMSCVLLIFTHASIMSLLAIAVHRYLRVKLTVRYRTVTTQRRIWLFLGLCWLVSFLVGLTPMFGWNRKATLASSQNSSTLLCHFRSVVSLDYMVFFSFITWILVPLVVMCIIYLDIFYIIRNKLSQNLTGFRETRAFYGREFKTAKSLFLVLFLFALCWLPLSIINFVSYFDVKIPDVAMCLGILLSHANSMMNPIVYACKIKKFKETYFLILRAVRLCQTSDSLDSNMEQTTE
# Method: B16-F10 melanoma cells were grown for 24 hours on cover slips coated with Ploy-L-Lysine (500 μg/ml). Cells were fixed in 4% formaldehyde in phosphate-buffered saline (PBS) for 1 hour at room temperature. The fixed cells were rinsed three times for one min with PBS. To block nonspecific interaction of the antibodies, cells were incubated for 30 minutes in 4% normal goat serum (NGS) in PBS (1% bovine serum albumin (BSA), 0.1% Triton X-100). For the single labeling experiments, cells were then incubated with the primary antibodies against A3AR at a dilution of 1:1000 in PBS (1% BSA, 1% NGS, 0.1% Triton X-100) for 24 hours at 4° C. For the double labeling experiments, antibodies against the A2B adenosine receptor (A2BR) were added at a dilution of 1:1000 to the reaction mixture. After being washed three times for 3 minutes with PBS, cells were incubated with Cy3-conjugated anti-goat IgG for the single labeling experiment, and with both, Fluorescein-conjugated anti-rabbit IgG and Cy3 for the double labeling. Both antibodies were diluted to 1:250 in PBS and incubated in the dark for 2 hours. Cells were rinsed with PBS three more times and mounted with AM 100 (Chemicon, Ca). Stained cells were visualized by Confocal Microscope (Zeiss, Axiovert 100 M, excitation at 553 and emission at 560-615 nm for Cy3, and 492 and 520 nm, respectively, for Fluorescein).
# To study receptor localization, confocal laser microscopy was utilized.
# To further explore the time course kinetic of A3AR internalization, B16-F10 melanoma cells were exposed for different time periods to IB-MECA and confocal microscopy analysis was carried out. FIG. 2 depicts the gradual internalization rate that occurred within a few minutes, resulting in the disappearance of the fluorescence after 6 minutes. […] This was followed by internalization/externalization after longer incubation time periods (30 and 60 minutes). To confirm the observation that the fluorescence level is decreased as a result of internalization, optical sectioning of the cells was performed (data not shown). […] To show the specificity of A3AR localization, it was compared to that of the A2B adenosine receptor. […] Upon exposure of the cells to IB-MECA, the A2BR was masked by A3AR in the cytoplasm.
# [1] = system: A3AR, NF-κB, c-myc, cyclin D1; assay: Immunoblot analysis of proteins extracted from prostate carcinoma (PC-3) cells; assay type: cell-based
# Method: To detect the level of expression of the A3AR proteins Western blot analysis was performed. Cells were incubated in the presence and absence of IB-MECA (10 nM), MRS1523 (10 nM), Forskolin (50 nM), 8 Br cAMP (100 μM), Cycloheximide 20 μg/ml or MG 132 (20 nM) for different time periods at 37° C. Cells were then rinsed with ice-cold PBS and transferred to ice-cold lysis buffer (TNN buffer, 50 mM Tris buffer pH=7.5, 150 mM NaCl, NP 40). In the experiment examining the effect of trypsin on A3AR expression, cells were incubated with 0.5 ml of 0.25% trypsin for 5 minutes. The trypsinized cells were washed again with ice-cold PBS, harvested by centrifugation and subjected to lysis in TNN buffer. Cell debris was removed by centrifugation for 10 minutes, at 7500 xg. The supernatant was utilized for Western Blot analysis. Protein concentrations were determined using the Bio-Rad protein assay dye reagent. Equal amounts of the sample (50 μg) were separated by SDS-PAGE, using 12% polyacrylamide gels. The resolved proteins were then electroblotted onto nitrocellulose membranes (Schleicher & Schuell, Keene, NH, USA). Membranes were blocked with 1% bovine serum albumin and incubated with the desired primary antibody (dilution 1:1000) for 24 hours at 4° C. Blots were then washed and incubated with a secondary antibody for 1 hour at room temperature. Bands were recorded using BCIP/NBT color development kit (Promega, Madison, W1, USA). Data presented in the different figures are representative of at least three different experiments.
# The effect of IB-MECA on key proteins downstream to A3AR activation in prostate carcinoma cells was also examined in a manner similar to that performed with melanoma cells (see above).
structure (smiles),measurement,setting,value
"CNC(=O)[C@H]1O[C@@H](n2cnc3c(NCc4cccc(I)c4)ncnc32)[C@H](O)[C@@H]1O [IB-MECA, 1-deoxy-1-[6[[(3-iodophenyl)methyl]amino]-9H-purine-9-yl]-N-methyl-β-D-ribofura-nuronaminde]",time to disappearance of the A3AR fluorescence (internalization),A3AR; B16-F10 melanoma cells exposed to IB-MECA,6 min
same,A3AR fluorescence level on the cell surface,"A3AR; B16-F10 melanoma cells, IB-MECA treated, after 5 minutes",marked decrease
same,"A3AR localization, optical sectioning","A3AR; B16-F10 melanoma cells, after 15 and 60 minutes' exposure",seen both in the cytoplasm and on the cell surface
same,"A3AR localization, optical sectioning","A3AR; B16-F10 melanoma cells, exposure for 5 minutes",presented in the cytoplasm
same,A3AR localization,"A3AR; B16-F10 melanoma cells, prolonged exposure (15 minutes)",receptor externalization to the cell surface
same,A3AR level,[1],down-regulation
same,NF-κB level,[1],down-regulation
same,c-myc level,[1],down-regulation
same,cyclin D1 level,[1],down-regulation
